Patent US20090318552A1, “Pharmaceutical composition comprising shikonin derivatives from lithospermum erythrorhizo dor treating or preventing diabetes mellitus and the use thereof” (priority 2006, published 2009)
“Also recorded” adds a separate entry of the source.

These compounds were tested against T1, KATP ion channels of beta cells in the pancreas (HIT-T15 cells) (UniProt A0A1U7QRT4+Q09427) (assay: Electro-physiological experiment: whole cell patch clamp recording of KATP current). Conditions: single compounds vs GBC; FIG. 5.
T1 construct: endogenous in cells; host or cells: HIT-T15 cells
T1 sequence (Q09427 whole entry): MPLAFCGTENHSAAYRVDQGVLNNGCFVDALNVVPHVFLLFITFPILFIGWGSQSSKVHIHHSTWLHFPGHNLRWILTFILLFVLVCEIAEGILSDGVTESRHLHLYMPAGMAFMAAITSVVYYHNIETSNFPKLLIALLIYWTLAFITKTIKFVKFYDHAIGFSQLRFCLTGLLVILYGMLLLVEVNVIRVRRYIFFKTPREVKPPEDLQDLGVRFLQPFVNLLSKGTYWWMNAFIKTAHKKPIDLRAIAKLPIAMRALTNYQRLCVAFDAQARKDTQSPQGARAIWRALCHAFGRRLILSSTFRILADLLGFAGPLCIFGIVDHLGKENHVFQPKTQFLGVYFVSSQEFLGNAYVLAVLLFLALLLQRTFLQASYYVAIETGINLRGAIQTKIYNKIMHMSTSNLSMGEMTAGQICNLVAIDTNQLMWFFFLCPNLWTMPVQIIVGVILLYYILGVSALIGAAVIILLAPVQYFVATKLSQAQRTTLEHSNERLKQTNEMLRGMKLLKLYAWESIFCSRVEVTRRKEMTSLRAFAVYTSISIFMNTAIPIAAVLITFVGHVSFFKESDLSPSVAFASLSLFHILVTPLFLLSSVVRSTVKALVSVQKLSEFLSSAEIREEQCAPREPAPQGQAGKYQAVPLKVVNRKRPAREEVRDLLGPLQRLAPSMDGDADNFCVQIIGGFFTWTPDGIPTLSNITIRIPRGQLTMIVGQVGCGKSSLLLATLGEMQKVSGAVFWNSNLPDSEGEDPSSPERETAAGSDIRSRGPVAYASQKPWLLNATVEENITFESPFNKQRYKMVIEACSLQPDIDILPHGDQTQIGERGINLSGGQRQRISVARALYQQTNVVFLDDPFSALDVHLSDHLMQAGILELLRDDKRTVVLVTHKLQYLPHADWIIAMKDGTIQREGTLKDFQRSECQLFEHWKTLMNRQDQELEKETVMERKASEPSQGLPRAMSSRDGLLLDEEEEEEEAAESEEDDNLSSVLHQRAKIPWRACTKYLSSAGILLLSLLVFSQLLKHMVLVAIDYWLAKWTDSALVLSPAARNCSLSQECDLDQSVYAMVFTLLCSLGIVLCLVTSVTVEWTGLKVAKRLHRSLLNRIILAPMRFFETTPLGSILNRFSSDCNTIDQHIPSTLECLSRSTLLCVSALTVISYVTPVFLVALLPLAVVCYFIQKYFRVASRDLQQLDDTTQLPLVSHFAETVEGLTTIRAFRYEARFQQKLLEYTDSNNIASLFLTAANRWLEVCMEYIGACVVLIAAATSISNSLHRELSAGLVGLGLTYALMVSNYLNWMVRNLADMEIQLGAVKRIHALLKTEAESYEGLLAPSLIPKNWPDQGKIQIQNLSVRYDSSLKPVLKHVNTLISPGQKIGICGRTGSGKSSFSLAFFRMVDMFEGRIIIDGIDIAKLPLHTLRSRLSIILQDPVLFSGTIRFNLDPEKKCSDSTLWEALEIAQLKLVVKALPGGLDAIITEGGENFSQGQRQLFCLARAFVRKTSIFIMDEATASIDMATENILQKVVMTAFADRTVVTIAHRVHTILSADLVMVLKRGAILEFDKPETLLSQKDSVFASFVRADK
T1 sequence (A0A1U7QRT4 1-390): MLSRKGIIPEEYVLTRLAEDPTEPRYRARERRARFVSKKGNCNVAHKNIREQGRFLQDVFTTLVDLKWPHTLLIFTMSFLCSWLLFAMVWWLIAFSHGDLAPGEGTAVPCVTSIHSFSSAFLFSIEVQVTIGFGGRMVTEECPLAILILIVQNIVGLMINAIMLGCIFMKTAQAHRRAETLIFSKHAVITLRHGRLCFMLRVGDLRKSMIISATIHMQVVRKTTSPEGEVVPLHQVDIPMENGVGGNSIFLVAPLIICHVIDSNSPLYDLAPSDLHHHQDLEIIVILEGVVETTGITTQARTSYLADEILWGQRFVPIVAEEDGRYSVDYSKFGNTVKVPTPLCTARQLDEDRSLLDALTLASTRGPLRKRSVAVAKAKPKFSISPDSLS
Type: cell-based
Description: HIT-T15 cells used for the experimental examples below were cultivated in an RPMI 1640 culture medium containing horse serum (10%, v/v), fetal bovine serum (2.5% v/v), and 1% penicillin-streptomycin, in a 5% CO2 incubator at 37° C.
Since type II diabetes is directly related to the KATP ion channels of beta cells in the pancreas (Tarasov, A. et al., Diabetes., 53(3), pp. S113-S122, 2004), it was tested whether or not the Lithospermum erythrorhizon extract obtained in the above example or the shikonin compounds isolated therefrom blocks the KATP ion channels of beta cells in the pancreas.
The ion current was recorded by a conventional whole cell patch clamp method, using a patch clamp amplifier (EPC-9, Heka Elektronik, Lambrecht, Germany). The measurement electrode was pulled from a borosilicate glass capillary using a puller (DMZ-Universal Puller; Dagan Co., USA). The electrode was selected to have a resistance of 6 to 9 MΩ when a solution was filled in the electrode. A cover glass, to which the cells were adhered, was placed on a microscope, and the extra-cellular fluid was allowed to flow, due to gravity, at a speed of up to 0.5 ml/min. When measuring the KATP electric current, the solution inside the electrode included (in mM): 10 NaCl, 102 KCl, 1 CaCl2, 1 MgCl2, 10 HEPES, 0.1 Na2-ATP, 1 Na2-GTP, and 10 EGTA (pH 7.2). To utilize the voltage-clamp method in taking records, the capacitance and series resistance of the cell membranes were compensated by 80% or higher, and the low-pass filter was set to 1 kHZ during the experiments. To measure the KATP electric current, the cell solution was substituted with 110 mM of a barium solution (mM: 110 BaCl2, 10 HEPES, 10 glucose), after which the membrane potential was fixed at −60 mV, and the resulting introvert current was recorded. The experiment results were stored in a Pentium level IBM computer and analyzed using Pulse/Pulsefit (v8.65) software (Heka Elektronik, Lambrecht, Germany), and all of the experiments were performed at room temperature.

| SMILES | inhibition of KATP ion channels by shikonin single compounds compared with GBC |
| --- | --- |
| CC(C)=CCC(OC(=O)C=C(C)C)C1=CC(=O)c2c(O)ccc(O)c2C1=O (stereo not drawn) [DS, β. β-dimethylacryl Shikonin] | effectively inhibit KATP ion channels; also recorded: the best in providing the inhibitory effects |
| CCC(C)C(=O)OC(CC=C(C)C)C1=CC(=O)c2c(O)ccc(O)c2C1=O (stereo not drawn) [MS, α-methyl-n-butyryl Shikonin] | effectively inhibit KATP ion channels |
| CC(C)=CCC(OC(=O)C(C)C)C1=CC(=O)c2c(O)ccc(O)c2C1=O (stereo not shown) [BS, Isobutyryl Shikonin] | effectively inhibit KATP ion channels |
| CC(C)=CCC(OC(=O)CC(C)C)C1=CC(=O)c2c(O)ccc(O)c2C1=O (stereo not shown) [VS, Isovaleryl Shikonin] | effectively inhibit KATP ion channels; also recorded: the best in providing the inhibitory effects |
